# In publication PMC9571063 (Molecules, 2022):
# Like-named read-outs stand apart in the source and are kept apart here.
# Key:
# SGK3 = target: T1, SGK3 (Homo sapiens, UniProt Q96BR1); assay: KINOMEscan; format: binding; details: read-out: Percent Control
# T1 construct: purchased Eurofins DiscoverX KINOMEscan (scanMAX 468)
# STK33 = target: T2, STK33 (Homo sapiens, UniProt Q9BYT3); assay: KINOMEscan; format: binding; details: read-out: Percent Control
# T2 construct: purchased Eurofins DiscoverX KINOMEscan (scanMAX 468)
# PFTAIRE2 = target: T3, PFTAIRE2 (Homo sapiens, UniProt Q96Q40); assay: KINOMEscan; format: binding; details: read-out: Percent Control
# T3 construct: purchased Eurofins DiscoverX KINOMEscan (scanMAX 468)
# NEK3 = target: T4, NEK3 (Homo sapiens, UniProt P51956); assay: KINOMEscan; format: binding; details: read-out: Percent Control
# T4 construct: purchased Eurofins DiscoverX KINOMEscan (scanMAX 468)
# [1] = target: T5, RSK4(Kin.Dom.1-N-terminal) (Homo sapiens, UniProt Q9UK32); assay: KINOMEscan; format: binding; details: read-out: Percent Control
# T5 construct: RSK4(Kin.Dom.1-N-terminal); purchased Eurofins DiscoverX KINOMEscan (scanMAX 468)
# Hs_HASPIN = target: T6, Hs_HASPIN (Homo sapiens, UniProt Q8TF76); design: method as in ref 13 (a number printed in a supplementary file, which may have a reference list of its own: not looked up in the article's list); details: DB18, cited from earlier work
# T6 construct: host or cells: bacteria
# T6 sequence (Q8TF76 1-798): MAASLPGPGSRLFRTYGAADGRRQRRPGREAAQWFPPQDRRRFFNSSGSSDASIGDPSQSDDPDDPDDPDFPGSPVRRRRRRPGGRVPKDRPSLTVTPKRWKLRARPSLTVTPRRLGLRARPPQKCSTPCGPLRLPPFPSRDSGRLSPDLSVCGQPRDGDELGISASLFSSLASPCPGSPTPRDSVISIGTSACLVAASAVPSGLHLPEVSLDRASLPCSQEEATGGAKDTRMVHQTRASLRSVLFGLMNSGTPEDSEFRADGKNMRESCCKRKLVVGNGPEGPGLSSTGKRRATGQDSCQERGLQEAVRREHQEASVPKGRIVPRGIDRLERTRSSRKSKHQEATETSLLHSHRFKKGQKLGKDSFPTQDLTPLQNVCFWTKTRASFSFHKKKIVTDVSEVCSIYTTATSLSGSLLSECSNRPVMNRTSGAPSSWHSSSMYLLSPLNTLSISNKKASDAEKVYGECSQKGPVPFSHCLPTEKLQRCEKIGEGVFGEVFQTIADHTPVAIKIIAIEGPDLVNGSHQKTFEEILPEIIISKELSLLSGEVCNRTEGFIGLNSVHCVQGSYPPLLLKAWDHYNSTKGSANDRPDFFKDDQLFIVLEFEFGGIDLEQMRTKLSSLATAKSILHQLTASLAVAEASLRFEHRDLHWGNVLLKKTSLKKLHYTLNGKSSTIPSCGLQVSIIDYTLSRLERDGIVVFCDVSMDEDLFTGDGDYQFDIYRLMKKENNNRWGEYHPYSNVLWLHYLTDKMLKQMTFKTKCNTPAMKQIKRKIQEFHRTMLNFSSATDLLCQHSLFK
# EGFR(L858R) = target: T7, EGFR(L858R) (Homo sapiens, UniProt P00533, L858R); assay: KINOMEscan; format: binding; details: read-out: Percent Control
# T7 construct: purchased Eurofins DiscoverX KINOMEscan (scanMAX 468)
# BLK = target: T8, BLK (Homo sapiens, UniProt P51451); assay: KINOMEscan; format: binding; details: read-out: Percent Control
# T8 construct: purchased Eurofins DiscoverX KINOMEscan (scanMAX 468)
# MAP3K1 = target: T9, MAP3K1 (Homo sapiens, UniProt Q13233); assay: KINOMEscan; format: binding; details: read-out: Percent Control
# T9 construct: purchased Eurofins DiscoverX KINOMEscan (scanMAX 468)
# DRAK2 = target: T10, DRAK2 (Homo sapiens, UniProt O94768); assay: KINOMEscan; format: binding; details: read-out: Percent Control
# T10 construct: purchased Eurofins DiscoverX KINOMEscan (scanMAX 468)
# TNK1 = target: T11, TNK1 (Homo sapiens, UniProt Q13470); assay: KINOMEscan; format: binding; details: read-out: Percent Control
# T11 construct: purchased Eurofins DiscoverX KINOMEscan (scanMAX 468)
# ITK = target: T12, ITK (Homo sapiens, UniProt Q08881); assay: KINOMEscan; format: binding; details: read-out: Percent Control
# T12 construct: purchased Eurofins DiscoverX KINOMEscan (scanMAX 468)
# AKT2 = target: T13, AKT2 (Homo sapiens, UniProt P31751); assay: KINOMEscan; format: binding; details: read-out: Percent Control
# T13 construct: purchased Eurofins DiscoverX KINOMEscan (scanMAX 468)
# EPHA6 = target: T14, EPHA6 (Homo sapiens, UniProt Q9UF33); assay: KINOMEscan; format: binding; details: read-out: Percent Control
# T14 construct: purchased Eurofins DiscoverX KINOMEscan (scanMAX 468)
# PRKCE = target: T15, PRKCE (Homo sapiens, UniProt Q02156); assay: KINOMEscan; format: binding; details: read-out: Percent Control
# T15 construct: purchased Eurofins DiscoverX KINOMEscan (scanMAX 468)
# [2] = target: T16, RPS6KA5(Kin.Dom.1-N-terminal) (Homo sapiens, UniProt O75582); assay: KINOMEscan; format: binding; details: read-out: Percent Control
# T16 construct: RPS6KA5(Kin.Dom.1-N-terminal); purchased Eurofins DiscoverX KINOMEscan (scanMAX 468)
# GRK7 = target: T17, GRK7 (Homo sapiens, UniProt Q8WTQ7); assay: KINOMEscan; format: binding; details: read-out: Percent Control
# T17 construct: purchased Eurofins DiscoverX KINOMEscan (scanMAX 468)
# MST2 = target: T18, MST2 (Homo sapiens, UniProt Q13188); assay: KINOMEscan; format: binding; details: read-out: Percent Control
# T18 construct: purchased Eurofins DiscoverX KINOMEscan (scanMAX 468)
# ULK2 = target: T19, ULK2 (Homo sapiens, UniProt Q8IYT8); assay: KINOMEscan; format: binding; details: read-out: Percent Control
# T19 construct: purchased Eurofins DiscoverX KINOMEscan (scanMAX 468)
# PFTK1 = target: T20, PFTK1 (Homo sapiens, UniProt O94921); assay: KINOMEscan; format: binding; details: read-out: Percent Control
# T20 construct: purchased Eurofins DiscoverX KINOMEscan (scanMAX 468)
# KIT(V559D,V654A) = target: T21, KIT(V559D,V654A) (Homo sapiens, UniProt P10721, V559D/V654A); assay: KINOMEscan; format: binding; details: read-out: Percent Control
# T21 construct: purchased Eurofins DiscoverX KINOMEscan (scanMAX 468)
# HCK = target: T22, HCK (Homo sapiens, UniProt P08631); assay: KINOMEscan; format: binding; details: read-out: Percent Control
# T22 construct: purchased Eurofins DiscoverX KINOMEscan (scanMAX 468)
# ERK3 = target: T23, ERK3 (Homo sapiens, UniProt Q16659); assay: KINOMEscan; format: binding; details: read-out: Percent Control
# T23 construct: purchased Eurofins DiscoverX KINOMEscan (scanMAX 468)
# VEGFR2 = target: T24, VEGFR2 (Homo sapiens, UniProt P35968); assay: KINOMEscan; format: binding; details: read-out: Percent Control
# T24 construct: purchased Eurofins DiscoverX KINOMEscan (scanMAX 468)
# SNARK = target: T25, SNARK (Homo sapiens, UniProt Q9H093); assay: KINOMEscan; format: binding; details: read-out: Percent Control
# T25 construct: purchased Eurofins DiscoverX KINOMEscan (scanMAX 468)
# PIK3CA(I800L) = target: T26, PIK3CA(I800L) (Homo sapiens, UniProt P42336, I800L); assay: KINOMEscan; format: binding; details: read-out: Percent Control
# T26 construct: purchased Eurofins DiscoverX KINOMEscan (scanMAX 468)
# EPHA2 = target: T27, EPHA2 (Homo sapiens, UniProt P29317); assay: KINOMEscan; format: binding; details: read-out: Percent Control
# T27 construct: purchased Eurofins DiscoverX KINOMEscan (scanMAX 468)
# YANK2 = target: T28, YANK2 (Homo sapiens, UniProt Q9NY57); assay: KINOMEscan; format: binding; details: read-out: Percent Control
# T28 construct: purchased Eurofins (KINOMEscan, DiscoverX)
# TRKC = target: T29, TRKC (Homo sapiens, UniProt Q16288); assay: KINOMEscan; format: binding; details: read-out: Percent Control
# T29 construct: purchased Eurofins DiscoverX KINOMEscan (scanMAX 468)
# MYO3A = target: T30, MYO3A (Homo sapiens, UniProt Q8NEV4); assay: KINOMEscan; format: binding; details: read-out: Percent Control
# T30 construct: purchased Eurofins DiscoverX KINOMEscan (scanMAX 468)
# T16 sequence (O75582 1-387 limits assumed): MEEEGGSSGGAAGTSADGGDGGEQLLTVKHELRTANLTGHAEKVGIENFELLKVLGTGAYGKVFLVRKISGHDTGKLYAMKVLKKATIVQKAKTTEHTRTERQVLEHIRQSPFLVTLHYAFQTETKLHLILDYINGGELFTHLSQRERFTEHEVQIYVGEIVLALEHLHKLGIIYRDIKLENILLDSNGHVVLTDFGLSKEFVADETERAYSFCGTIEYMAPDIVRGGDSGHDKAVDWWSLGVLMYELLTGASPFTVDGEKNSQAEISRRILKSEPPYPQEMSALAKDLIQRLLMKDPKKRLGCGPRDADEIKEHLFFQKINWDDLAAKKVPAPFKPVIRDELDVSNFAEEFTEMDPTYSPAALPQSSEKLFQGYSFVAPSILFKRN
# T20 sequence (O94921 whole entry): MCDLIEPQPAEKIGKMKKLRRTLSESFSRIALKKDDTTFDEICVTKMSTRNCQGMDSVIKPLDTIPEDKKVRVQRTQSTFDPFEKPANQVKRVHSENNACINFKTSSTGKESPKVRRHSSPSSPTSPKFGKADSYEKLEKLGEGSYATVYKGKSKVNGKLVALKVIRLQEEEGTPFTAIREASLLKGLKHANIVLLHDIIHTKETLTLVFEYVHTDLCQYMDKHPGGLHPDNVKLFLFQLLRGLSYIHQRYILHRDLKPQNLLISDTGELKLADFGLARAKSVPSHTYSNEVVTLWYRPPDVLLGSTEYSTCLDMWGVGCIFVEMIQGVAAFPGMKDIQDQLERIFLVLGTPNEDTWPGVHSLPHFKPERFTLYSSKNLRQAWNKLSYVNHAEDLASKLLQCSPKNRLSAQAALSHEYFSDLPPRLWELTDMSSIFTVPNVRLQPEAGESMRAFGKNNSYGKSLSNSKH
# T4 sequence (P51956 whole entry): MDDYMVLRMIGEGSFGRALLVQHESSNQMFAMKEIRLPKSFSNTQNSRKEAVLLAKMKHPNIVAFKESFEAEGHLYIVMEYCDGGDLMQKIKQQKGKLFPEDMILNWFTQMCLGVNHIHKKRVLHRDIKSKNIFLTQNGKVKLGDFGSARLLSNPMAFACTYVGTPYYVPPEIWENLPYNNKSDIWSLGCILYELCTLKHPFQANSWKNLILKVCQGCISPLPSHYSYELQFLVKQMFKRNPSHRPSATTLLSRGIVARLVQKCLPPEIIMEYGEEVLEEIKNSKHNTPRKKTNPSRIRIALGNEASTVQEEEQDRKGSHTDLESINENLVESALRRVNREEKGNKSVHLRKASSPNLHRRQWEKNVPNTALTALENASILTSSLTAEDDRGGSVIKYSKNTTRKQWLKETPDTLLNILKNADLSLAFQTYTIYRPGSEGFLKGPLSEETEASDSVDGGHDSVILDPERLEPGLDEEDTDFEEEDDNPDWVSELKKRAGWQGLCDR
# T1 sequence (Q96BR1 whole entry): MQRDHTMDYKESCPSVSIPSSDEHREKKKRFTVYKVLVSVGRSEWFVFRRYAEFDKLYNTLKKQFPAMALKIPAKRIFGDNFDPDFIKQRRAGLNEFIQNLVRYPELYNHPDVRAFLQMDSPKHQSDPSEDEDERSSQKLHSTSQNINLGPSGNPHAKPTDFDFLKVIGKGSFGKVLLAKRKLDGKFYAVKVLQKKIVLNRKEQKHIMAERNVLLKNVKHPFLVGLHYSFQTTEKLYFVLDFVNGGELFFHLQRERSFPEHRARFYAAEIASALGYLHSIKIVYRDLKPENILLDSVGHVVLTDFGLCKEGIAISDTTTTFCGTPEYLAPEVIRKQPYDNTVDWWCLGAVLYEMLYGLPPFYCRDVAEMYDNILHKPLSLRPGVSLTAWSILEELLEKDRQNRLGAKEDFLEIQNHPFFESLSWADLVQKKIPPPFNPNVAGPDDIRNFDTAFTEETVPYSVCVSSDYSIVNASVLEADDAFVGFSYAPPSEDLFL
# T29 sequence (Q16288 32-839): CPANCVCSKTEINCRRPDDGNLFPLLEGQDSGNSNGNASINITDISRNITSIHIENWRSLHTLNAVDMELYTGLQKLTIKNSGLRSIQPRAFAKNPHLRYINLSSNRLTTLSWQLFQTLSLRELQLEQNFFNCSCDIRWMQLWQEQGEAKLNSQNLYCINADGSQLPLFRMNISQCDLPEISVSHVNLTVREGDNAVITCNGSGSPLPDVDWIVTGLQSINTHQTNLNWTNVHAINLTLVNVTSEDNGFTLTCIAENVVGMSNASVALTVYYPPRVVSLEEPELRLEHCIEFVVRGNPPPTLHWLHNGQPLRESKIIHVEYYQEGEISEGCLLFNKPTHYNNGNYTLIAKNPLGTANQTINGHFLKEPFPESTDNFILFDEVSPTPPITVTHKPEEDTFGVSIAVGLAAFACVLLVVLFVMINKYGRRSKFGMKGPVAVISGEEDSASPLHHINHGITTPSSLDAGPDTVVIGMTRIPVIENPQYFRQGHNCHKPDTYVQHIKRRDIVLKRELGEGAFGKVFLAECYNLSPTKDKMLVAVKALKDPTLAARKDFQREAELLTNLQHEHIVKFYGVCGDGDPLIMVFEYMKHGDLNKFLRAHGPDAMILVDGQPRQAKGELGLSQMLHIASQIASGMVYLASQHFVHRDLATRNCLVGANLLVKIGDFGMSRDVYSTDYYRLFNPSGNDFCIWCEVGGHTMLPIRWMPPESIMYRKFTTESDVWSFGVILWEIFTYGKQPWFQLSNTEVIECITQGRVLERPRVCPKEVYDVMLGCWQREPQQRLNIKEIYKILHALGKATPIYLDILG
# T14 sequence (Q9UF33 23-1036): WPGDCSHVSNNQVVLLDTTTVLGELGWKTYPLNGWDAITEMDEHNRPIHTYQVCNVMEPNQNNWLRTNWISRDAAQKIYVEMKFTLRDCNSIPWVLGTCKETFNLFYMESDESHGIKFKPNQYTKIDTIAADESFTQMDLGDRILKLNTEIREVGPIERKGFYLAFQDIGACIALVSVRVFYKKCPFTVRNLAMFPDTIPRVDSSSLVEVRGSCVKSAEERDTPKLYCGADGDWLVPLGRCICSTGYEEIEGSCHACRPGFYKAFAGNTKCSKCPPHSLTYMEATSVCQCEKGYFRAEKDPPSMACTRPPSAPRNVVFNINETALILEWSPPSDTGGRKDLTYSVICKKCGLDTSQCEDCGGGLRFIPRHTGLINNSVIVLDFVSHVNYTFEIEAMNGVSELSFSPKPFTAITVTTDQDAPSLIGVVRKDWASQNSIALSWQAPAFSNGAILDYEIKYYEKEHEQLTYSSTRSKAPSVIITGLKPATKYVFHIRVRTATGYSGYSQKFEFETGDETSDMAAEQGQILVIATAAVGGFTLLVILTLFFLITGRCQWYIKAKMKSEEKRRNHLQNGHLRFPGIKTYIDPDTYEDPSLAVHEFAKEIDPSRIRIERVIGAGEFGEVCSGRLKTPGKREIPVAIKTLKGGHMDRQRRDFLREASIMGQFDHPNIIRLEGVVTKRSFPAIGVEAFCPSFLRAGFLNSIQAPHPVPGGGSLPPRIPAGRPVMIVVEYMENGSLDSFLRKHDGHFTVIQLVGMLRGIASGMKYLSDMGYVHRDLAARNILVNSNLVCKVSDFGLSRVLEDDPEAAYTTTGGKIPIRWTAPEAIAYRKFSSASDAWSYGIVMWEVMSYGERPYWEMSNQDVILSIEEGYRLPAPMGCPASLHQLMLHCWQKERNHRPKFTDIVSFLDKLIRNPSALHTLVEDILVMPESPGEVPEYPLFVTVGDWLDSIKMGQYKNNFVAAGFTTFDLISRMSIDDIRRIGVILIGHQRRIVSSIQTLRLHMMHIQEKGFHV
# T22 sequence (P08631 whole entry): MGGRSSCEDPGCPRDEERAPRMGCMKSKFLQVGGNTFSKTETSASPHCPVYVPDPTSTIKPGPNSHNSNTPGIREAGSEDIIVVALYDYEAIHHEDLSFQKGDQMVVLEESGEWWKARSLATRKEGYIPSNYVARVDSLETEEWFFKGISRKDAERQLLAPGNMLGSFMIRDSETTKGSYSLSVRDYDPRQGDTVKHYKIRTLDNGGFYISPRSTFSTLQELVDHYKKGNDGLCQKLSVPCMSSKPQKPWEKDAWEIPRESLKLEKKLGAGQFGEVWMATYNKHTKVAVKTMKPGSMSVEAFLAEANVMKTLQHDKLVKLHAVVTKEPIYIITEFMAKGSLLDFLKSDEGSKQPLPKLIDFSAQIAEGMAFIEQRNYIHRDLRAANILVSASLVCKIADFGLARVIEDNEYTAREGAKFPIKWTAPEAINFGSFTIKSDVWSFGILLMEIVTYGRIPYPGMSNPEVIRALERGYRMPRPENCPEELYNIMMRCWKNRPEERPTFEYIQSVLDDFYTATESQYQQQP
# T18 sequence (Q13188 whole entry): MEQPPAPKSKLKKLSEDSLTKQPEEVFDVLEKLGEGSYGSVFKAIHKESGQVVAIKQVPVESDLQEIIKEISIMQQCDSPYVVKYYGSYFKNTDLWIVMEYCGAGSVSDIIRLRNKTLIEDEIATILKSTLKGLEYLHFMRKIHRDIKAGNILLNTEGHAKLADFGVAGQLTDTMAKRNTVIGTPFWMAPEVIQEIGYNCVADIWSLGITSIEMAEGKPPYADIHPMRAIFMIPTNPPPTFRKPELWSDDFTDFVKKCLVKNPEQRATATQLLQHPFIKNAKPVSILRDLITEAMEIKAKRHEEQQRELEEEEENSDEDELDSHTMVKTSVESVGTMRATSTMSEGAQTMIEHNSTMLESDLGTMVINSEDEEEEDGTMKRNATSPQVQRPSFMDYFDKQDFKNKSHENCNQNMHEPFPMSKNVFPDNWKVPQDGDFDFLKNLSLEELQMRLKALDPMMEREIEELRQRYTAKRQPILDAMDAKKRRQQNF
smiles,measurement,setting,value
Cc1ccc(-n2cc(COc3cccc4cnc(Nc5cccc(Cl)c5)nc34)nn2)c([N+](=O)[O-])c1 [DB18],remaining binding at 1 µM,SGK3,100%
same,remaining binding at 1 µM,STK33,100%
same,remaining binding at 1 µM,PFTAIRE2,95%
same,remaining binding at 1 µM,NEK3,83%
same,remaining binding at 1 µM,[1],96%
same,% of residual activity Hs_HASPIN,Hs_HASPIN; 1 µM,96%
same,% of residual activity Hs_HASPIN,Hs_HASPIN; 10 µM,94%
same,remaining binding at 1 µM,EGFR(L858R),94%
same,remaining binding at 1 µM,BLK,100%
same,remaining binding at 1 µM,MAP3K1,98%
same,remaining binding at 1 µM,DRAK2,100%
same,remaining binding at 1 µM,TNK1,100%
same,remaining binding at 1 µM,ITK,100%
same,remaining binding at 1 µM,AKT2,100%
same,remaining binding at 1 µM,EPHA6,100%
same,remaining binding at 1 µM,PRKCE,100%
same,remaining binding at 1 µM,[2],100%
same,remaining binding at 1 µM,GRK7,100%
same,remaining binding at 1 µM,MST2,100%
same,remaining binding at 1 µM,ULK2,100%
same,remaining binding at 1 µM,PFTK1,100%
same,remaining binding at 1 µM,"KIT(V559D,V654A)",100%
same,remaining binding at 1 µM,HCK,100%
same,remaining binding at 1 µM,ERK3,100%
same,remaining binding at 1 µM,VEGFR2,99%
same,remaining binding at 1 µM,SNARK,100%
same,remaining binding at 1 µM,PIK3CA(I800L),77%
same,remaining binding at 1 µM,EPHA2,100%
same,remaining binding at 1 µM,YANK2,100%
same,remaining binding at 1 µM,TRKC,59%
same,remaining binding at 1 µM,MYO3A,100%
